In US20130345061A1 (priority 2011, published 2013):
Several values for one entry are separate records, joined by “and”; a condition that tells them apart may be missing. Identical values can stand only once. Like-named read-outs stand apart in the source and are kept apart here.

Test system: Pseudomonas syringae pv. porri
Format: in vivo
Conditions: for % infection / Total number of positive leaves per object: repeats A and B
[1] = wetting agent 0, leek, natural washing off 15 mm, reading after 8 weeks
[2] = wetting agent (emulsion according to the invention) 0.25%, CuSO4 6 g/L
[3] = wetting agent (emulsion according to the invention) 0.50%, CuSO4 6 g/L
[4] = wetting agent (emulsion according to the invention) 1.00%, CuSO4 6 g/L

`O=S(=O)([O-])[O-].[Cu+2]` [CuSO4, copper sulfate] was tested, and the “significant difference to reference product Phyton 27 (statistical test)” value (copper sulfate with the wetting agent at 0.5% or 1%) was “equivalent to the reference product”, the “% infection” value [1] was 52% and 49% and the “Total number of positive leaves per object” value (“Total number … per object” below) [1] was 29. For the same compound, the “% infection” value [2] was 35% and 37%, the “Total number … per object” value [2] was 18 and 17 and the “% infection” value [3] was 31%. For the same compound, the “Total number … per object” value [3] was 17 and 16, the “% infection” value [4] was 25% and 27% and the “Total number … per object” value [4] was 13 and 15. For the same compound, the “leaves attacked / level of infection per mode” value (without wetting agent, value for the whole mode) was “more than 50%”.
